{
  "source": "patent US9125926B2",
  "about": "“Vicenin 2 and analogues thereof for use as an antispasmodic and/or prokinetic agent” (priority 2011, dated 2015)",
  "key": {"[1]": {"test_system": "rat ileum", "assay": "Rat ileum contraction induced by increasing concentrations of barium ion (musculotropic antispasmodic effect)", "procedure": "(§1) An isolated vicenin 2 compound was tested for its antispasmodic effect with respect to the cholinergic system and with respect to nonspecific contraction mediated by Ba^++. Therefore, rat ileum was precontracted with increasing concentrations of either acetylcholine or Ba^++. The shift of either concentration response curve by the compound was determined. […] The dose of vicenin 2 for humans was estimated to be between 5 and 15 μg/70 kg b.w. which will correspond to 0.071 and 0.214 μg/kg b.w. Due to the increased metabolism in rodents compared to humans the doses were calculated as approx. between 0.5 and 1.49 μg/kg b.w. The central (blood) compartment (hydrophilic extracts) is approx. 7% of whole body volume, i.e. between 0.5/70 g and 1.4 μg/70 g blood. Since blood is in direct contact with ileum, a concentration of 7 to 20.86 μg/kg (0.007 to 0.021 μg/g) is expected for ileum. […] Therefore, it was reasonable to translate these in vivo calculations into the in vitro experiments and in these experiments 10 and 100 μl of a stock solution per 10 ml incubation bath were used. […] Under a protocol approved by the Animal Care and Use Committee of Munster, Germany, male and female rats (Charles River, Sulzfeld, Germany) weighing 200 to 320 g were used. The rats were anesthetized (CO2). The proximal ileum was removed, washed and placed in Krebs-Henseleit solution. 1 cm segments were placed in 10 mL organ baths with a resting tension of 1.0 g (preload). One end was attached to a force displacement transducer (lever transducer B40, Typ 373) combined with a two-channel amplifier (type 301, Hugo Sachs Elektronik, March, Germany); for the recording of tension changes a multi-pen recorder was used (Rikadenki Kogyo, Tokio, Japan). The composition of Krebs-Henseleit solution was (mM): […] The solution was kept at 37° C., pH 7.4 and gassed with carbogen (a 95% O2/5% CO2 mixture). Equilibration time for the ileum before starting the experiment was at least 30 min. After the tissues had been pre-treated with the extracts for 3 min cumulative concentration response curves using either acetylcholine or barium ion were recorded isotonically in the organ bath, and the effect was allowed to reach a steady state at each concentration. The results were normalized to 100% (maximum effect of either acetylcholine or barium ion alone). Differences between entire curves were obtained by comparing F-values of the best fitted curves by using GraphPad-Prism (version 3.00, GraphPad Software, Inc., 1999). P<0.05 was regarded as statistically significant."}, "[2]": {"test_system": "rat ileum", "assay": "Rat ileum contraction, effect of the compound on its own (spasmolytic effect)", "conditions": "data as % of maximum acetylcholine effect; FIG. 1", "procedure": "An isolated vicenin 2 compound was tested for its antispasmodic effect with respect to the cholinergic system and with respect to nonspecific contraction mediated by Ba^++. Therefore, rat ileum was precontracted with increasing concentrations of either acetylcholine or Ba^++. The shift of either concentration response curve by the compound was determined. […] The dose of vicenin 2 for humans was estimated to be between 5 and 15 μg/70 kg b.w. which will correspond to 0.071 and 0.214 μg/kg b.w. Due to the increased metabolism in rodents compared to humans the doses were calculated as approx. between 0.5 and 1.49 μg/kg b.w. The central (blood) compartment (hydrophilic extracts) is approx. 7% of whole body volume, i.e. between 0.5/70 g and 1.4 μg/70 g blood. Since blood is in direct contact with ileum, a concentration of 7 to 20.86 μg/kg (0.007 to 0.021 μg/g) is expected for ileum. […] Therefore, it was reasonable to translate these in vivo calculations into the in vitro experiments and in these experiments 10 and 100 μl of a stock solution per 10 ml incubation bath were used. […] After the tissues had been pre-treated with the extracts for 3 min cumulative concentration response curves using either acetylcholine or barium ion were recorded isotonically in the organ bath, and the effect was allowed to reach a steady state at each concentration. […]"}, "[3]": {"test_system": "rat ileum", "assay": "Rat ileum contraction induced by increasing concentrations of acetylcholine (neurotropic antispasmodic effect)", "procedure": "as §1"}, "[4]": {"test_system": "murine frontal cortex networks", "assay": "Cortical network activity in vitro, electrophysiological multi-channel recordings on MEA neurochips", "type": "cell-based, mice", "from_the_text": "Purpose of this example was the evaluation of the acute neuroactive effects of vicenin 2 (named AUC-V) on the neuronal activity of murine frontal cortex networks in vitro by means of electrophysiological multi-channel recordings.\nTherefore, in a first step the dose-effect curve of vicenin 2 was plotted by means of cumulatively increasing the substance concentration, so that the spectrum of activity of the substance is optimally covered with 9 concentrations. Concentration from 100 fg/ml, 10 pg/ml, […], 1 ng/ml, 100 ng/ml, 1 μg/ml, 10 μg/ml, 100 μg/ml and 300 μg/ml were used.\nSubsequently, the measurements of the dose-effect curve of the test substances were repeated at least 10 times. The recorded electrical activity patterns were characterized by 200 features and their changes were statistically evaluated.\nThe microelectrode array neurochips (MEA neurochips) were provided by the Center for Network Neuroscience (CNNS) at the University of North Texas. These 5×5 cm^2 glass chips have a central recording matrix with 64 passive electrodes and indium tin oxide conductors. The hydrophobic insulation material surface was activated by a brief butane flame pulse through a stainless steel mask. Thus, cell attachment on a confined adhesive region (5 mm diameter centered on the electrode array) is ensured. The activated surface regions were coated with poly-D-lysine (25 μg/ml; 30-70 kD) and laminin (16 μg/ml). Fabrication techniques and culture methods have been described previously.\nFrontal cortex tissue was harvested from embryonic day 15, or day 14 chr:NMRI mice. After ethyl ether anesthesia, mice were sacrificed by cervical dislocation according to the German Animal Protection Act §4. […] Cultures were incubated at 37° C. in a 10% CO2 atmosphere until ready for use, which usually is four weeks to three months after seeding. […]\nFor extracellular recording, MEA neurochips were placed into sterilized constant-bath recording chambers and maintained at 37° C. […] The signals routinely recorded by these neurochips are located in a range of 15-1800 μV. […]"}, "[5]": {"test_system": "murine frontal cortex networks", "assay": "Pattern recognition classification of activity patterns against the NeuroProof database (105 substances)", "type": "cell-based, mice", "conditions": "AUC-V, all 143", "procedure": "Afterwards, a further analysis was carried out through a pattern-recognition analysis and through comparison with NeuroProof database to determine relevant mechanisms involved in the frontal cortex activity pattern induced changes by each substance.\nTo clarify the mode of action of the test substance on the activity of cortical networks these experiments were further analyzed using methods of pattern recognition. For each stable concentration activity phase we normalized the 200 spike train parameters by the native reference activity.\nUsing a feature selection algorithm, on the basis of the reference substances, the 40 most descriptive parameters for all 200 spike train parameters were selected. The rankings of activity features using various score methods based on classification experiments and compared their total correct predictions were calculated. In this manner, the best results for a MDL (minimal description length) modified algorithm were obtained. A training data set with these 40 spike train parameters was established in the form of data records from the reference substances. An artificial neuronal network, multi layer feed forward network and back propagation algorithm […] hidden units was then trained. The respective data records of the four substances were all subsequently classified. A classification against 105 substances in the database was carried out.\nThe classification against 105 substances using the electrophysiological multi-channel recording of vicenin 2 and the 105 substances identified several activities for vicenin 2."}, "[6]": {"assay": "Solubility of isolated vicenin 2", "type": "physicochemical"}},
  "data": [
    {"smiles": "COc1ccc(Cc2nccc3cc(OC)c(OC)cc23)cc1OC", "note": "[Papaverine, reference compound]", "values": [
      {"measurement": "shift of the Ba++ concentration response curve", "setting": "[1]; positive control, 4×10^−2 g/ml, FIG. 4", "result": "expected non-competitive musculotropic antispasmodic effect"},
      {"measurement": "shift of the Ba++ concentration response curve", "setting": "[1]; positive control, 4×10^−2 g/ml, FIG. 4, listed as papaverine", "result": "significantly different from the acetylcholine curve without additions"}
    ]},
    {"smiles": "O=c1cc(-c2ccc(O)cc2)oc2c([C@@H]3O[C@H](CO)[C@@H](O)[C@H](O)[C@H]3O)c(O)c([C@@H]3O[C@H](CO)[C@@H](O)[C@H](O)[C@H]3O)c(O)c12", "note": "[vicenin 2, 5,7-Dihydroxy-2-(4-hydroxyphenyl)-6,8-bis[(2S,3R,4R,5S,6R)-3,4,5-trihydroxy-6 (hydroxymethyl)oxan-2-yl]chromen-4-one]", "values": [
      {"measurement": "effect on rat ileum contraction from its own (direct spasmolytic effect)", "setting": "[2]", "result": "slight (not significant) relaxation"},
      {"measurement": "shift of the acetylcholine concentration response curve", "setting": "[3]; 0.005 mg/ml final bath concentration, FIG. 2", "result": "shifted the acetylcholine curve to the right in a competitive manner"},
      {"measurement": "shift of the acetylcholine concentration response curve", "setting": "[3]; 0.005 mg/ml final bath concentration, FIG. 2, listed as AUC-V", "result": "significantly different from the acetylcholine curve"},
      {"measurement": "shift of the acetylcholine concentration response curve", "setting": "[3]; 0.05 mg/ml final bath concentration, FIG. 3", "result": "stronger rightward and downward shift of the acetylcholine curve"},
      {"measurement": "shift of the acetylcholine concentration response curve", "setting": "[3]; 0.05 mg/ml final bath concentration, FIG. 3, listed as AUC-V", "result": "significantly different from the acetylcholine curve"},
      {"measurement": "shift of the Ba++ concentration response curve", "setting": "[1]; 0.005 mg/ml final bath concentration, FIG. 4", "result": "shifted the Ba^++ curve downwards"},
      {"measurement": "shift of the Ba++ concentration response curve", "setting": "[1]; 0.005 mg/ml final bath concentration, FIG. 4, listed as AUC-V", "result": "significantly different from the acetylcholine curve without additions"},
      {"measurement": "shift of the Ba++ concentration response curve", "setting": "[1]; 0.05 mg/ml final bath concentration, FIG. 5", "result": "rightward and downward shift of the Ba^++ curve"},
      {"measurement": "shift of the Ba++ concentration response curve", "setting": "[1]; 0.05 mg/ml final bath concentration, FIG. 5, listed as AUC-V", "result": "significantly different from the acetylcholine curve with no further additions"},
      {"measurement": "effect on burst structure of the network", "setting": "[4]", "result": "no affects on the burst structure"},
      {"measurement": "EC50", "setting": "[4]; Mus musculus, 9 accumulating concentrations, FIG. 6, read-out: EC50 of decrease of the cortical network activity (spike rate)", "result": 2, "unit": "µg/mL"},
      {"measurement": "maximum decrease of the cortical network activity", "setting": "[4]; remaining activity, FIG. 6", "result": "80 % of the native activity"},
      {"measurement": "data records classified as the respective substance", "setting": "[5]; classified as Amisulpride", "result": 15, "unit": "%"},
      {"measurement": "data records classified as the respective substance", "setting": "[5]; classified as Atropinemethylbromide", "result": 12, "unit": "%"},
      {"measurement": "data records classified as the respective substance", "setting": "[5]; classified as DPDPE", "result": 11, "unit": "%"},
      {"measurement": "data records classified as the respective substance", "setting": "[5]; classified as Enkephalin", "result": 14, "unit": "%"},
      {"measurement": "data records classified as the respective substance", "setting": "[5]; classified as Eserine", "result": 15, "unit": "%"},
      {"measurement": "data records classified as the respective substance", "setting": "[5]; classified as Indatraline", "result": 12, "unit": "%"},
      {"measurement": "data records classified as the respective substance", "setting": "[5]; classified as Modafinil", "result": 12, "unit": "%"},
      {"measurement": "data records classified as the respective substance", "setting": "[5]; classified as Nicotine", "result": 12, "unit": "%"},
      {"measurement": "data records classified as the respective substance", "setting": "[5]; classified as Olanzapine", "result": 17, "unit": "%"},
      {"measurement": "data records classified as the respective substance", "setting": "[5]; classified as Sodium dodecyl sulfate", "result": 12, "unit": "%"},
      {"measurement": "solubility", "setting": "[6]", "result": "good solubility"}
    ]},
    {"smiles": "CN1[C@@H]2CC[C@H]1C[C@@H](OC(=O)C(CO)c1ccccc1)C2", "note": "(stereo partly drawn) [Atropine, reference compound]", "values": [
      {"measurement": "shift of the acetylcholine concentration response curve", "setting": "[3]; positive control, 5×10^−5 mg/ml, FIG. 2", "result": "expected competitive neurotropic antispasmodic effect"},
      {"measurement": "shift of the acetylcholine concentration response curve", "setting": "[3]; positive control, 5×10^−5 mg/ml, FIG. 2, listed as atropine", "result": "significantly different from the acetylcholine curve"}
    ]}
  ]
}
